Test results from patent US11999739B2, “Antimicrobials methods of making and using the same” (BIOVERSYS AG, priority 2016, dated 2024).

How the values were obtained:
[1] = system: Staphylococcus aureus (S. aureus) 11540 strain; assay: Standard microdilution MIC assay, S. aureus; assay type: cell-based
Experimental: (§1) The in vitro activity of the compounds of the present disclosure can be determined. Antimicrobial testing is typically performed to determine the minimum inhibitory concentration (MIC). Minimum inhibitory concentrations (MICs) are determined by the microdilution method in a final volume of 100 μl according to protocols outlined by The Clinical and Laboratory Standards Institute (CLSI). Performance standards for reference strains are assessed within the same experimental design to maintain quality control. See, for example, Clinical Laboratory Standards Institute: Methods for dilution antimicrobial susceptibility tests for bacteria that grow aerobically M7-A8. Approved Standard-Eighth Edition. Wayne, PA: CLSI; December 2008; and Clinical Laboratory Standards Institute: Performance Standards for Antimicrobial Susceptibility Testing M100-S20; Approved Standard-Twentieth Edition. Wayne, PA: CLSI; June 2010.
(§2) The compounds of the present disclosure were tested for antimicrobial activity. The Compounds 1-293 were run against Escherichia coli (E co/i) strain ATCC25922 and against Staphylococcus aureus (S. aureus) 11540 strain using a standard microdilution assay to determine minimum inhibitory concentrations (MICs). […] It will be recognized by one skilled in the art that the compounds can be assessed against other bacterial organisms and that the presentation of data for activity against Escherichia coli and Staphylococcus aureus are illustrative and in no way is intended to limit the scope of the present disclosure. The compounds of the present disclosure can be assayed against a range of other microorganisms depending upon the performance activity desired to be gathered. Furthermore, the “+” and “−” representation and the selection of a cutoff value of 16 micrograms/mL is also illustrative and in no way is intended to limit the scope of the present disclosure.

[2] = system: Escherichia coli strain ATCC25922; assay: Standard microdilution MIC assay, E. coli; assay type: cell-based
Experimental: as §1, §2

Structure (SMILES) | MIC [1] [µg/mL] | MIC [2] [µg/mL]
CC(=N)NCC[C@@H]1COC[C@@H](c2ccc(-n3cc4cc(-c5cc(CCC[C@@H](N)C6CC6)cc(Cl)c5F)[nH]c4nc3=O)cc2)N1 [Compound 98] | ≤ 16 | ≤ 16
CC(=N)NCCCN[C@@H](C)c1ccc(-n2cc3cc(-c4cc(CCC[C@@H](N)C5CC5)cc(Cl)c4F)[nH]c3nc2=O)cc1F [Compound 99] | ≤ 16 | ≤ 16
CC(=N)NCC[C@H](CO)NCc1ccc(-n2cc3cc(-c4cc(CCC[C@@H](N)CF)cc(Cl)c4F)[nH]c3nc2=O)cc1 [Compound 100] | ≤ 16 | ≤ 16
C=C[C@H](N)CCCc1cc(Cl)c(F)c(-c2cc3cn(-c4ccc(CN[C@@H](C=C)CCNC(C)=N)cc4)c(=O)nc3[nH]2)c1 [Compound 101] | ≤ 16 | ≤ 16
CC(=N)NCCCN[C@@H](C)c1ccc(-n2cc3cc(-c4cc(CCC[C@@H](N)C(F)(F)F)cc(Cl)c4F)[nH]c3nc2=O)cc1 [Compound 102] | ≤ 16 | ≤ 16
C=C[C@@H](CCNC(C)=N)NCc1ccc(-n2cc3cc(-c4cc(CCC[C@@H](N)CF)cc(Cl)c4F)[nH]c3nc2=O)cc1 [Compound 103] | ≤ 16 | ≤ 16
CC(=N)NCC[C@@H]1CCC[C@@H](c2ccc(-n3cc4cc(-c5cc(CCC[C@@H](N)CF)cc(Cl)c5F)[nH]c4nc3=O)cc2)N1 [Compound 104] | ≤ 16 | ≤ 16
C=C[C@@H](CCNC(C)=N)NCc1ccc(-n2cc3cc(-c4cc(CCC(F)(F)CN)cc(Cl)c4F)[nH]c3nc2=O)cc1 [Compound 105] | ≤ 16 | ≤ 16
CC(=N)NCCCN[C@@H](C)c1ccc(-n2cc3cc(-c4cc(CCC(F)(F)CN)cc(Cl)c4F)[nH]c3nc2=O)cc1F [Compound 106] | ≤ 16 | ≤ 16
CC(=N)NCCCN[C@@H](C)c1ccc(-n2cc3cc(-c4cc(CCC[C@@H](N)CF)cc(Cl)c4F)[nH]c3nc2=O)cc1F [Compound 107] | ≤ 16 | ≤ 16
C[C@H](N)CCCc1cc(Cl)c(F)c(-c2cc3cn(-c4ccc([C@@H]5CCC[C@@H](CCNC(=N)CF)N5C)cc4)c(=O)nc3[nH]2)c1 [Compound 108] | ≤ 16 | ≤ 16
CC(=N)NCC[C@@H]1CCC[C@@H](c2ccc(-n3cc4cc(-c5cc(CCC[C@H](C)N)cc(Cl)c5F)[nH]c4nc3=O)cc2)N1C [Compound 109] | ≤ 16 | ≤ 16
C=C[C@H](N)CCCc1cc(Cl)c(F)c(-c2cc3cn(-c4ccc([C@H](C)NCCCNC(C)=N)c(F)c4)c(=O)nc3[nH]2)c1 [Compound 111] | ≤ 16 | ≤ 16
CC(=N)NCCCN[C@H](C)c1ccc(-n2cc3cc(-c4cc(CCC[C@H](C)N)cc(Cl)c4F)[nH]c3nc2=O)cc1F [Compound 112] | ≤ 16 | ≤ 16
CC(=N)NCCCN[C@@H](C)c1ccc(-n2cc3cc(-c4cc(CCC[C@@H](N)CO)cc(Cl)c4F)[nH]c3nc2=O)cc1F [Compound 113] | ≤ 16 | ≤ 16
C[C@H](N)CCCc1cc(Cl)c(F)c(-c2cc3cn(-c4ccc([C@@H](C)NCCCNC(=N)CF)c(F)c4)c(=O)nc3[nH]2)c1 [Compound 114] | ≤ 16 | ≤ 16
CSc1cc(-n2cc3cc(-c4cc(CCC[C@H](C)N)cc(Cl)c4F)[nH]c3nc2=O)ccc1[C@@H]1CCC[C@@H](CCNC(C)=N)N1 [Compound 115] | ≤ 16 | ≤ 16
CSc1cc(-n2cc3cc(-c4cc(CCC[C@@H](N)CO)cc(Cl)c4F)[nH]c3nc2=O)ccc1[C@@H]1CCC[C@@H](CCNC(C)=N)N1 [Compound 116] | ≤ 16 | ≤ 16
CC(=N)NCC[C@@H]1CCC[C@@H](c2ccc(-n3cc4cc(-c5cc(CCC[C@@H](N)CO)cc(Cl)c5F)[nH]c4nc3=O)cc2S(C)(=O)=O)N1 [Compound 118] | ≤ 16 | ≤ 16
CC(=N)NCC[C@@H]1CCC[C@@H](c2ccc(-n3cc4cc(-c5cc(CCC[C@@H](N)CO)cc(Cl)c5F)[nH]c4nc3=O)cc2)N1C [Compound 121] | ≤ 16 | ≤ 16
CN1[C@H](CCNC(=N)CF)CCC[C@H]1c1ccc(-n2cc3cc(-c4cc(CCC[C@@H](N)CO)cc(Cl)c4F)[nH]c3nc2=O)cc1 [Compound 122] | ≤ 16 | ≤ 16
C=C[C@@H](N)CCCc1cc(Cl)c(F)c(-c2cc3cn(-c4ccc([C@@H]5CCC[C@@H](CCNC(C)=N)N5C)cc4)c(=O)nc3[nH]2)c1 [Compound 124] | ≤ 16 | ≤ 16
C[C@H](NCCCNC(=N)CF)c1ccc(-n2cc3cc(-c4cc(CCC[C@@H](N)CO)cc(Cl)c4F)[nH]c3nc2=O)cc1F [Compound 125] | ≤ 16 | ≤ 16

Structure (SMILES) | MIC [1] [µg/mL] | MIC [2] [µg/mL]
CSc1cc(-n2cc3cc(-c4cc(CCC[C@@H](N)CF)cc(Cl)c4F)[nH]c3nc2=O)ccc1[C@@H]1CCC[C@@H](CCNC(C)=N)N1 [Compound 126] | ≤ 16 | ≤ 16
C=C[C@@H](N)CCCc1cc(Cl)c(F)c(-c2cc3cn(-c4ccc([C@@H]5CCC[C@@H](CCNC(C)=N)N5)c(SC)c4)c(=O)nc3[nH]2)c1 [Compound 128] | ≤ 16 | ≤ 16
CSc1cc(-n2cc3cc(-c4cc(CCC(F)(F)CN)cc(Cl)c4F)[nH]c3nc2=O)ccc1[C@@H]1CCC[C@@H](CCNC(C)=N)N1 [Compound 129] | ≤ 16 | ≤ 16
CC(=N)NCCCN[C@H](c1ccc(-n2cc3cc(-c4cc(CCC[C@H](C)N)cc(Cl)c4F)[nH]c3nc2=O)cc1)C(F)(F)F [Compound 130] | ≤ 16 | ≤ 16
CC(=N)NCCCN[C@@H](C)c1ccc(-n2cc3cc(-c4cc(CCCC5(N)CC5)cc(Cl)c4F)[nH]c3nc2=O)cc1 [Compound 131] | ≤ 16 | ≤ 16
CC(=N)NCCCN[C@@H](CO)c1ccc(-n2cc3cc(-c4cc(CCC[C@H](C)N)cc(Cl)c4F)[nH]c3nc2=O)cc1 [Compound 132] | ≤ 16 | ≤ 16
CC(=N)NCCCN[C@@H](CO)c1ccc(-n2cc3cc(-c4cc(CCC[C@@H](N)CO)cc(Cl)c4F)[nH]c3nc2=O)cc1 [Compound 133] | ≤ 16 | ≤ 16
CC(=N)NCCCN[C@@H](CO)c1ccc(-n2cc3cc(-c4cc(CCC[C@@H](N)C5CC5)cc(Cl)c4F)[nH]c3nc2=O)cc1 [Compound 134] | ≤ 16 | ≤ 16
CC(=N)NCC[C@@H]1CCC[C@@H](c2ccc(-n3cc4cc(-c5cc(CCC(F)(F)CN)cc(Cl)c5F)[nH]c4nc3=O)cc2)N1C [Compound 135] | ≤ 16 | ≤ 16
CC(=N)NCCCN[C@@H](CO)c1ccc(-n2cc3cc(-c4cc(CCC[C@@H](N)CF)cc(Cl)c4F)[nH]c3nc2=O)cc1 [Compound 136] | ≤ 16 | ≤ 16
CC(=N)NCC[C@@H]1CCC[C@@H](c2ccc(-n3cc4cc(-c5cc(CCC[C@@H](N)CF)cc(Cl)c5F)[nH]c4nc3=O)cc2)N1C [Compound 137] | ≤ 16 | ≤ 16
CC(=N)NCCCNC1(c2ccc(-n3cc4cc(-c5cc(CCC[C@@H](N)CO)cc(Cl)c5F)[nH]c4nc3=O)cc2)CC1 [Compound 138] | ≤ 16 | ≤ 16
CC(=N)NCC[C@@H]1CCC[C@@H](c2ccc(-n3cc4cc(-c5cc(CCC[C@@H](N)C(F)F)cc(Cl)c5F)[nH]c4nc3=O)cc2)N1 [Compound 139] | ≤ 16 | ≤ 16
C=C[C@@H](CCNC(C)=N)NCc1ccc(-n2cc3cc(-c4cc(CCC[C@@H](N)C(F)F)cc(Cl)c4F)[nH]c3nc2=O)cc1 [Compound 140] | ≤ 16 | ≤ 16
CC(=N)NCC[C@@H]1CCC[C@@H](c2ccc(-n3cc4cc(-c5cc(CCC[C@H](N)C(F)F)cc(Cl)c5F)[nH]c4nc3=O)cc2)N1 [Compound 141] | ≤ 16 | ≤ 16
C=C[C@@H](CCNC(C)=N)NCc1ccc(-n2cc3cc(-c4cc(CCC[C@H](N)C(F)F)cc(Cl)c4F)[nH]c3nc2=O)cc1 [Compound 142] | ≤ 16 | ≤ 16
CC(=N)NCCCNC1(c2ccc(-n3cc4cc(-c5cc(CCC[C@@H](N)C6CC6)cc(Cl)c5F)[nH]c4nc3=O)cc2)CC1 [Compound 143] | ≤ 16 | ≤ 16
C=C[C@@H](N)CCCc1cc(Cl)c(F)c(-c2cc3cn(-c4ccc(C5(NCCCNC(C)=N)CC5)cc4)c(=O)nc3[nH]2)c1 [Compound 144] | ≤ 16 | ≤ 16
CC(=N)NCCCNC1(c2ccc(-n3cc4cc(-c5cc(CCC[C@H](C)N)cc(Cl)c5F)[nH]c4nc3=O)cc2)CC1 [Compound 145] | ≤ 16 | ≤ 16
C=C[C@@H](CCNC(C)=N)NCc1ccc(-n2cc3cc(-c4cc(CCCC5(N)CC5)cc(Cl)c4F)[nH]c3nc2=O)cc1 [Compound 146] | ≤ 16 | ≤ 16
CC(=N)NCC[C@@H]1CCC[C@@H](c2ccc(-n3cc4cc(-c5cc(CCCC6(N)CC6)cc(Cl)c5F)[nH]c4nc3=O)cc2)N1 [Compound 147] | ≤ 16 | ≤ 16
CC(=N)NCCCN[C@@H](C)c1ccc(-n2cc3cc(-c4cc(CCCC5(N)CC5)cc(Cl)c4F)[nH]c3nc2=O)cc1F [Compound 148] | ≤ 16 | ≤ 16
